Like-named read-outs stand apart in the source and are kept apart here.
Assays:
KM12 cells = assay: KM12 cell viability (CellTiter-Glo); format: cell-based; conditions: for IC50: Homo sapiens, 72 h, KM12 cell viability, CellTiter-Glo, read-out: IC50
Procedure, shortened: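 Three-day exposure of KM12 cells (5000/well, RPMI 1640 with 10% FBS, 37 °C, 5% CO2) to compound dilution series, 3-fold over 8 or 11 points (top 1000 nM in the 8-point format) or 2-fold over 12. CellTiter-Glo readout, with IC50 fitted by nonlinear least-squares regression.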

TPM3-TRKA fusion protein = target: T1, TPM3-TRKA fusion protein (Homo sapiens, UniProt P04629); assay: TPM3-TRKA fusion protein levels in KM12 cells (Western blot); format: cell-based; conditions: read-out: Degradation (at 10 nM)
T1 construct: The resulted chimeric proteins always retain the kinase domain of TRK proteins; TPM3 (fusion partner, N-terminal part of tropomyosin alpha-3, P06753); endogenous in cells; host or cells: KM12 colon cancer cells; the other entry of the earlier key: TPM3 (P06753, Tropomyosin alpha-3 chain)
Procedure, shortened: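 TPM3-TRKA levels were assessed by Western blot with chemiluminescent detection and band densitometry, after SDS-PAGE of BCA-normalized RIPA lysates. Before lysis, KM12 cells received DMSO, compounds or matched control compounds at concentrations including 0.1, 1, 10 and 100 nM and 0.4–30 nM. Exposures lasted 4 h, 8–16 h or 16 h.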

[1] = 16 h, TPM3-TRKA degradation in KM12 cells at 10 nM compound, category of percentage degradation
[2] = 11-point 3-fold serial dilution, 3 days
[3] = 16 h, TPM3-TRKA degradation in KM12 cells at 10 nM

T1 sequence (P04629 with tags, fused parts or gaps): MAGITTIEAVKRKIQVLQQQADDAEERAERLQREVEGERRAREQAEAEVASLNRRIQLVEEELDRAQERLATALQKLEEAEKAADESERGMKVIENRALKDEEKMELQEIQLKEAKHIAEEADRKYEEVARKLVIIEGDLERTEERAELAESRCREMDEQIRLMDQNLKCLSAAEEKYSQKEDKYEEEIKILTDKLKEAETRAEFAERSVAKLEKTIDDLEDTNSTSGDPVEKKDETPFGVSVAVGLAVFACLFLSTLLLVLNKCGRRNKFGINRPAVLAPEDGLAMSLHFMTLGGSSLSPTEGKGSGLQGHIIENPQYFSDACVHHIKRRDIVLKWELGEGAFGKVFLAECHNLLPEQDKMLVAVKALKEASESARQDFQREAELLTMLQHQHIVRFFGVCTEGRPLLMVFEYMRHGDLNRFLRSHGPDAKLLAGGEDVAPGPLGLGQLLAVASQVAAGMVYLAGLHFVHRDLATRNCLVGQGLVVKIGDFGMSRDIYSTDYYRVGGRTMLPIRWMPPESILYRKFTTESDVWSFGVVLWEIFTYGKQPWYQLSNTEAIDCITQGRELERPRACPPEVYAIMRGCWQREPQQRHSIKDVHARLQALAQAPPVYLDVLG

Row | percent degradation of TPM3-TRKA protein at 0.01 µM (TPM3-TRKA fusion protein; [1]) [%] | SMILES | IC50 (KM12 cells; three days treatment) [nM] | further results
1 | > 80 | O=C1CCC(N2C(=O)c3ccc(NC(=O)CN4CCN(c5cccc(-c6cnc7ccc(N8CCC[C@@H]8c8cccc(F)c8)nn67)n5)CC4)cc3C2=O)C(=O)N1 (stereo partly drawn) [TR-233, N-(2-(2,6-dioxopiperidin-3-yl)-1,3-dioxoisoindolin-5-yl)-2-(4-(6-(6-((R)-2-(3-fluorophenyl)pyrrolidin-1-yl)imidazo[1,2-b]pyridazin-3-yl)pyridin-2-yl)piperazin-1-yl)acetamide] | 5 | 
2 |  | O=C1CCC(N2Cc3cc(C#CC4CCN(c5ccc(C(=O)Nc6n[nH]c7ccc(Cc8cc(F)cc(F)c8)cc67)c(NC6CCOCC6)c5)CC4)ccc3C2=O)C(=O)N1 (stereo not shown) [TR-323, N-(5-(3,5-Difluorobenzyl)-1H-indazol-3-yl)-4-(4-((2-(2,6-dioxopiperidin-3-yl)-1-oxoisoindolin-5-yl)ethynyl)piperidin-1-yl)-2-((tetrahydro-2H-pyran-4-yl)amino)benzamide] | 31 | percent degradation of TPM3-TRKA protein at 0.01 µM (TPM3-TRKA fusion protein; KM12, 16 h): > 80%
3 | > 80 | Cn1c(=O)n(C2CCC(=O)NC2=O)c2cccc(N3CC(CN4CCN(c5cccc(-c6cnc7ccc(N8CCC[C@@H]8c8cccc(F)c8)nn67)n5)CC4)C3)c21 (stereo partly drawn) [TR-258, 3-(4-(3-((4-(6-(6-((R)-2-(3-fluorophenyl)pyrrolidin-1-yl)imidazo[1,2-b]pyridazin-3-yl)pyridin-2-yl)piperazin-1-yl)methyl)azetidin-1-yl)-3-methyl-2-oxo-2,3-dihydro-1H-benzo[d]imidazol-1-yl)piperidine-2,6-dione] | 10.4 | 
4 | > 80 | O=C1CC[C@H](N2C(=O)c3ccc(N4CC(CN5CCN(c6ccc(C(=O)Nc7n[nH]c8ccc(Cc9cc(F)cc(F)c9)cc78)c(NC7CCOCC7)c6)CC5)C4)cc3C2=O)C(=O)N1 [TR-341, (S)—N-(5-(3,5-difluorobenzyl)-1H-indazol-3-yl)-4-(4-((1-(2-(2,6-dioxopiperidin-3-yl)-1,3-dioxoisoindolin-5-yl)azetidin-3-yl)methyl)piperazin-1-yl)-2-((tetrahydro-2H-pyran-4-yl)amino)benzamide] | 3 | 
5 | > 80 | O=C1CCC(N2C(=O)c3cccc(NCCOCCOCCOCCC(=O)N4CCN(c5ccc(C(=O)Nc6n[nH]c7ccc(Cc8cc(F)cc(F)c8)cc67)c(NC6CCOCC6)c5)CC4)c3C2=O)C(=O)N1 (stereo not drawn) [CPD-057, N—(S-(3,5-Difluorobenzyl)-1H-indazol-3-yl)-4-(4-(3-(2-(2-(2-((2-(2,6-dioxopiperidin-3-yl)-1,3-dioxoisoindolin-4-yl)amino)ethoxy)ethoxy)ethoxy)propanoyl)piperazin-1-yl)-2-((tetrahydro-2H-pyran-4-yl)amino)benzamide] |  | viability of KM12 cells (KM12 cells; 500 nM, 12-point 2-fold serial dilution, 3 days (FIG. 4A)): inhibited the viability of KM12 cells
6 | 50 to 80 | O=C1CCC(N2C(=O)c3ccc(CCC(=O)N4CCN(c5cccc(-c6cnc7ccc(N8CCC[C@@H]8c8cccc(F)c8)nn67)n5)CC4)cc3C2=O)C(=O)N1 (stereo partly drawn) [TR-194, 2-(2,6-Dioxopiperidin-3-yl)-5-(3-(4-(6-(6-((R)-2-(3-fluorophenyl)pyrrolidin-1-yl)imidazo[1,2-b]pyridazin-3-yl)pyridin-2-yl)piperazin-1-yl)-3-oxopropyl)isoindoline-1,3-dione] | 7.4 | 
7 | 50 to 80 | Cc1nc2cccc(N3CC(CN4CCN(c5ccc(C(=O)Nc6n[nH]c7ccc(Cc8cc(F)cc(F)c8)cc67)c(NC6CCOCC6)c5)CC4)C3)c2c(=O)n1C1CCC(=O)NC1=O (stereo not shown) [TR-333, N-(5-(3,5˜Difluorobenzyl)-1H-indazol-3-yl)-4-(4-((1-(3-(2,6-dioxopiperidin-3-yl)-2-methyl-4-oxo-3,4-dihydroquinazolin-5-yl)azetidin-3-yl)methyl)piperazin-1-yl)-2-((tetrahydro-2H-pyran-4-yl)amino)benzamide] | 10.5 | 
8 |  | NC(=O)C1CCN(c2cc(CN3CCN(C(=O)CCOCCOCCOCCNc4cccc5c4C(=O)N(C4CCC(=O)NC4=O)C5=O)CC3)ccc2NC(=O)c2coc(N3CCOCC3)n2)CC1 (stereo not shown) [CPD-487, N-(2-(4-carbamoylpiperidin-1-yl)-4-((4-(3-(2-(2-(2-((2-(2,6-dioxopiperidin-3-yl)-1,3-dioxoisoindolin-4-yl)amino)ethoxy)ethoxy)ethoxy)propanoyl)piperazin-1-yl)methyl)phenyl)-2-morpholinooxazole-4-carboxamide] |  | IC50 (KM12 cells; [2]): 121 nM; percent degradation of TPM3-TRKA protein at 0.01 µM (TPM3-TRKA fusion protein; [3]): 50 to 80%
9 |  | O=C1CCC(N2C(=O)c3ccc(NCCOCCOCCOCCC(=O)N4CCC(Nc5cccc(C(=O)Nc6cnn7ccc(N8CCC[C@@H]8c8cc(F)ccc8F)nc67)n5)CC4)cc3C2=O)C(=O)N1 (stereo partly drawn) [CPD-475, N-(5-((R)-2-(2,5-difluorophenyl)pyrrolidin-1-yl)pyrazolo[1,5-a]pyrimidin-3-yl)-6-((1-(3-(2-(2-(2-((2-(2,6-dioxopiperidin-3-yl)-1,3-dioxoisoindolin-5-yl)amino)ethoxy)ethoxy)ethoxy)propanoyl)piperidin-4-yl)amino)picolinamide] |  | IC50 (KM12 cells; [2]): 17 nM; percent degradation of TPM3-TRKA protein at 0.01 µM (TPM3-TRKA fusion protein; [3]): > 80%
10 | > 80 | Cn1c(=O)n(C2CCC(=O)NC2=O)c2ccc(C#CCCN3CCN(c4ccc(C(=O)Nc5n[nH]c6ccc(Cc7cc(F)cc(F)c7)cc56)c(NC5CCOCC5)c4)CC3)cc21 (stereo not shown) [TR-319, N-(5-(3,5-difluorobenzyl)-1H-indazol-3-yl)-4-(4-(4-(1-(2,6-dioxopiperidin-3-yl)-3-methyl-2-oxo-2,3-dihydro-1H-benzo[d]imidazol-5-yl)but-3-yn-1-yl)piperazin-1-yl)-2-((tetrahydro-2H-pyran-4-yl)amino)benzamide] | 5.7 | 
11 | > 80 | Cn1c(=O)n(C2CCC(=O)NC2=O)c2cccc(CCCCN3CCN(c4ccc(C(=O)Nc5n[nH]c6ccc(Cc7cc(F)cc(F)c7)cc56)c(NC5CCOCC5)c4)CC3)c21 (stereo not shown) [TR-304, N-(5-(3,5-difluorobenzyl)-1H-indazol-3-yl)-4-(4-(4-(1-(2,6-dioxopiperidin-3-yl)-3-methyl-2-oxo-2,3-dihydro-1H-benzo[d]imidazol-4-yl)butyl)piperazin-1-yl)-2-((tetrahydro-2H-pyran-4-yl)amino)benzamide] | 1.5 | 
12 | 50 to 80 | O=C1CCC(n2nnc3cccc(N4CC(CN5CCN(c6ccc(C(=O)Nc7n[nH]c8ccc(Cc9cc(F)cc(F)c9)cc78)c(NC7CCOCC7)c6)CC5)C4)c3c2=O)C(=O)N1 (stereo not shown) [TR-326, N-(5-(3,5-Difluorobenzyl)-1H-indazol-3-yl)-4-(4-((1˜ (3-(2,6-dioxopiperidin-3-yl)-4-oxo-3,4-dihydrobenzo[d][1,2,3]triazin-5-yl)azetidin-3-yl)methyl)piperazin-1-yl)-2-((tetrahydro-2H-pyran-4-yl)amino)benzamide] | 14 | 
13 | 50 to 80 | O=C1CCC(N2C(=O)c3ccc(N4CCCC(CN5CCN(c6ccc(C(=O)Nc7n[nH]c8ccc(Cc9cc(F)cc(F)c9)cc78)c(NC7CCOCC7)c6)CC5)C4)cc3C2=O)C(=O)N1 (stereo not shown) [TR-272] | 20.1 | 
14 | 50 to 80 | O=C1CCC(n2nnc3cccc(N4CC(CCN5CCN(c6ccc(C(=O)Nc7n[nH]c8ccc(Cc9cc(F)cc(F)c9)cc78)c(NC7CCOCC7)c6)CC5)C4)c3c2=O)C(=O)N1 (stereo not shown) [TR-327, N-(5-(3,5-Difluorobenzyl)-1H-indazol-3-yl)-4-(4-(2-(1-(3-(2,6-dioxopiperidin-3-yl)-4-oxo-3,4-dihydrobenzo[d][1,2,3]triazin-5-yl)azetidin-3-yl)ethyl)piperazin-1-yl)-2-((tetrahydro-2/-pyran-4-yl)amino)benzamide] | 13.3 | 
15 | > 80 | O=C1CCC(N2C(=O)c3ccc(CN4CC(CN5CCN(c6ccc(C(=O)Nc7n[nH]c8ccc(Cc9cc(F)cc(F)c9)cc78)cc6)CC5)C4)cc3C2=O)C(=O)N1 (stereo not shown) [TR-262, N-(5-(3,5-Difluorobenzyl)-1H-indazol-3-yl)-4-(4-((1-((2-(2,6-dioxopiperidin-3-yl)-1,3-dioxoisoindolin-5-yl)methyl)azetidin-3-yl)methyl)piperazin-1-yl)benzamide] | 81 | 
16 | > 80 | O=C1CCC(N2C(=O)c3ccc(N4CC5(C4)CN(C4CCN(c6ccc(C(=O)Nc7n[nH]c8ccc(Cc9cc(F)cc(F)c9)cc78)c(NC7CCOCC7)c6)CC4)C5)cc3C2=O)C(=O)N1 (stereo not shown) [TR-340, N-(5-(3,5-difluorobenzyl)-1H-indazol-3-yl)-4-(4-(6-(2-(2,6-dioxopiperidin-3-yl)-1,3-dioxoisoindolin-5-yl)-2,6-diazaspiro[3.3]heptan-2-yl)piperidin-1-yl)-2-((tetrahydro-2H-pyran-4-yl)amino)benzamide] | 7.5 | 
17 | > 80 | O=C(CN1CCN(c2cccc(-c3cnc4ccc(N5CCC[C@@H]5c5cccc(F)c5)nn34)n2)CC1)NCCOCCNc1ccc2c(c1)C(=O)N(C1CCC(=O)NC1=O)C2=O (stereo partly drawn) [TR-135, N-(2-(2-((2-(2,6-dioxopiperidin-3-yl)-1,3-dioxoisoindolin-5-yl)amino)ethoxy)ethyl)-2-(4-(6-(6-((R)-2-(3-fluorophenyl)pyrrolidin-1-yl)imidazo[1,2-b]pyridazin-3-yl)pyridin-2-yl)piperazin-1-yl)acetamide] | 0.9 | 

Reference: patent US12410171B2, “Tropomyosin receptor kinase (TRK) degradation compounds and methods of use” (Cullgen (Shanghai), Inc., priority 2020, dated 2025)
